As usually defined, the Ki is the equilibrium dissociation constant of an inhibitor or competing ligand from its target.

Calls of active or inactive are those of the source. No cut-off for these calls is given here.

Assay [1] addresses T1, Adrenergic receptor alpha-2 (Homo sapiens, UniProt P08913+P18825+P18089).
T1 sequence (P08913 whole entry): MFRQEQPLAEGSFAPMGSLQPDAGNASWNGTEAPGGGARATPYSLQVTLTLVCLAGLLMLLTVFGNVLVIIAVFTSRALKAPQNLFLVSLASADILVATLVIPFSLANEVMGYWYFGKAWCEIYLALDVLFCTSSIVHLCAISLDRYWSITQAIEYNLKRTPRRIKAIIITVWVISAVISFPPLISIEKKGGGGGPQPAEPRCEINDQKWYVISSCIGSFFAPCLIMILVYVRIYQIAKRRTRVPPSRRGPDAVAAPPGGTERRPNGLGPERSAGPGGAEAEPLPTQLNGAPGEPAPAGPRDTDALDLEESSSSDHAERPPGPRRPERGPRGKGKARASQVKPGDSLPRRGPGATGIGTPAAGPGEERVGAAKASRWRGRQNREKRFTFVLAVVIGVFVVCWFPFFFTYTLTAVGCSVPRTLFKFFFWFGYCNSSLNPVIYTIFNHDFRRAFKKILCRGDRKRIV
T1 sequence (P18825 whole entry): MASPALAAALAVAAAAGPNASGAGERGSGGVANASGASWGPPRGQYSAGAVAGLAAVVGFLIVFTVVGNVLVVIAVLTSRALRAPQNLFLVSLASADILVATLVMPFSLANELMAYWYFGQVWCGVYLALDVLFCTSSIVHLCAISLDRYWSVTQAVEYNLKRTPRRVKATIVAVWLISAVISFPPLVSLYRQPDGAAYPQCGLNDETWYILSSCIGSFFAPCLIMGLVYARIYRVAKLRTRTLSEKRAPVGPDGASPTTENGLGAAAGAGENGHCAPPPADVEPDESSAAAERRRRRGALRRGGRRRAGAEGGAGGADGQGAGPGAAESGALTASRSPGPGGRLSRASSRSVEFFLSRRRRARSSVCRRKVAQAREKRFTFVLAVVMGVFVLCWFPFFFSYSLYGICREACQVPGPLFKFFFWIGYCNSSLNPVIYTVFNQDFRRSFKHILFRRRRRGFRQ
T1 sequence (P18089 whole entry): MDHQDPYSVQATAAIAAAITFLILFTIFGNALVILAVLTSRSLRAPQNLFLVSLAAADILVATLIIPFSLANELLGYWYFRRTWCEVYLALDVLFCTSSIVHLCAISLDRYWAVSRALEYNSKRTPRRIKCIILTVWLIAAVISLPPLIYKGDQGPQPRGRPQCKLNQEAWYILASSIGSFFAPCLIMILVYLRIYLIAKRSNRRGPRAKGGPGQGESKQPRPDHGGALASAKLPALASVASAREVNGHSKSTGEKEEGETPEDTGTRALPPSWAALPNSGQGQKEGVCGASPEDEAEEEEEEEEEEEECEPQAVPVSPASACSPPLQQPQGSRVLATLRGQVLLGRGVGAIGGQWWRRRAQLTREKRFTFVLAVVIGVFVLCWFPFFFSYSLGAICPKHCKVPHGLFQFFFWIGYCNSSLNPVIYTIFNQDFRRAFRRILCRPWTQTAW
The assay is described as follows: Displacement of [3H]RX821002 from human alpha2 adrenoceptor expressed in CHO cell membranes after 60 mins. In kind it is cell-based.

The subject of assay [2] is Rattus norvegicus. The assay is described as follows: Reduction in heart rate in normotensive anaesthetized Wistar rat at 10 mg/kg, iv. Details: scale not given: the % may be the effect or the level left.
For assay [3], the system named is Rattus norvegicus. The assay is described as follows: Reduction in heart rate in normotensive anaesthetized Wistar rat at 0.3 mg/kg administered intracisternally. In kind it is functional.
Assay [4] concerns Rattus norvegicus. The assay is described as follows: Reduction in mean arterial blood pressure in normotensive anaesthetized Wistar rat at 0.3 mg/kg administered intracisternally. The assay is classed as functional.
Assay [5] concerns Rattus norvegicus. The assay is described as follows: Reduction in mean arterial blood pressure in normotensive anaesthetized Wistar rat at 10 mg/kg, iv. Further details: scale not given: the % may be the effect or the level left.
Assay [6] has as its system CHO. The assay is described as follows: Selectivity ratio of Ki for I1 imidazoline receptor in rat PC12 cells to Ki for human alpha2 adrenoceptor expressed in CHO cell membranes. In kind it is cell-based.
Assay [7] concerns the target Nischarin (Rattus norvegicus, UniProt Q4G017). The assay is described as follows: Displacement of [125I] PIC from I1 imidazoline receptor in rat PC12 cells after 45 mins by gamma counting. The assay is classed as cell-based, PC-12.
Assay [8] concerns Rattus norvegicus. The assay is described as follows: Reduction in heart rate in normotensive anaesthetized Wistar rat at 10 mg/kg, iv. In kind it is functional. Further details: scale not given: the % may be the effect or the level left.
Assay [9] relates to Rattus norvegicus. The assay is described as follows: Reduction in mean arterial blood pressure in normotensive anaesthetized Wistar rat at 3 mg/kg, iv. Details: scale not given: the % may be the effect or the level left.
In assay [10] the test system is Rattus norvegicus. The assay is described as follows: Reduction in heart rate in normotensive anaesthetized Wistar rat at 3 mg/kg, iv. Details: scale not given: the % may be the effect or the level left.

Nischarin, sequence (Q4G017 whole entry): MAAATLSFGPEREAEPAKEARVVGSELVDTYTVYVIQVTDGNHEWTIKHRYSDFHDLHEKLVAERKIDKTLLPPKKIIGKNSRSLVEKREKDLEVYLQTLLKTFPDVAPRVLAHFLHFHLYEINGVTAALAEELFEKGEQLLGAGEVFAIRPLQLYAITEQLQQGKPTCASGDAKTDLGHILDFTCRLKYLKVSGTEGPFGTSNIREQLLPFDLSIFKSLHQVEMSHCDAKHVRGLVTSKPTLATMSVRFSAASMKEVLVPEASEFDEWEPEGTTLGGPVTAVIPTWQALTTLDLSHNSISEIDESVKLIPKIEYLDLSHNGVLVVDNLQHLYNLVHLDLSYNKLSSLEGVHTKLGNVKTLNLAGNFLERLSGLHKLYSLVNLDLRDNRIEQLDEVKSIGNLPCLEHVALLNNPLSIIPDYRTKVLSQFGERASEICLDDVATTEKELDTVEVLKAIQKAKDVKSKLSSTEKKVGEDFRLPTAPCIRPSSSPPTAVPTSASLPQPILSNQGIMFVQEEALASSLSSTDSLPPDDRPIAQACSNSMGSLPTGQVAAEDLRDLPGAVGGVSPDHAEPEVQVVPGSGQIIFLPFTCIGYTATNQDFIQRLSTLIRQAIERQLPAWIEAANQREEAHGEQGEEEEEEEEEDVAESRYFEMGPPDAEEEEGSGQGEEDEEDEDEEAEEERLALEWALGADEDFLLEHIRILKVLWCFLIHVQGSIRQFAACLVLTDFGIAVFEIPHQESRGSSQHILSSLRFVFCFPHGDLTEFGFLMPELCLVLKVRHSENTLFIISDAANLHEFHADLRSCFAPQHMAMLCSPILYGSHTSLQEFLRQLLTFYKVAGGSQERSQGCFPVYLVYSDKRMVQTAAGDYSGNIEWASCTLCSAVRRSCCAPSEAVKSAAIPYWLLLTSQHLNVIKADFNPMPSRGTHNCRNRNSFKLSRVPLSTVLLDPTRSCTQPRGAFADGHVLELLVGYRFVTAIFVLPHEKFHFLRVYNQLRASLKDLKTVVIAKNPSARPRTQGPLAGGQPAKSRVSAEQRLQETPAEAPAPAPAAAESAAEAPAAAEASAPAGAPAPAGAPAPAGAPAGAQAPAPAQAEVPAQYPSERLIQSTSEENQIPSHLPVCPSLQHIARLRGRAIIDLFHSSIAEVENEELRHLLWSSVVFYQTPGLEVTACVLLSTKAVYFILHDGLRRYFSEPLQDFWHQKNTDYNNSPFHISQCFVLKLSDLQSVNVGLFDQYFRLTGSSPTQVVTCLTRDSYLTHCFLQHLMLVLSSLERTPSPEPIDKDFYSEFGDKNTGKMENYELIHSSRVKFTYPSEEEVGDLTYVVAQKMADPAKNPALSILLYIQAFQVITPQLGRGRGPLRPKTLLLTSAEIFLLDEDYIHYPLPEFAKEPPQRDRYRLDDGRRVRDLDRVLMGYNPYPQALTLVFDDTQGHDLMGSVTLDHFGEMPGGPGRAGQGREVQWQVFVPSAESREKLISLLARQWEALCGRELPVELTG

In turn, `CC1CNC(Nc2c(Cl)cccc2Cl)=N1` (stereo not drawn) returned an inhibition constant Ki in [1] of more than 1949 nM.
In the case of `CC1CN/C(=N\c2cccc3c2CCCC3)C1.Cl` (stereo not drawn), the Activity in [2] is listed as 3%; in assay [5], 5%. Besides, the outcome in assay [3] and in assay [4] was inactive.
In the case of `Cc1c(Cl)cccc1NC1=NCC(C)C1` (stereo not drawn), in assay [6], the Ratio Ki is more than 3000. In assay [7] (read-out: Ki), the Ki was 3.2 nM.
For the molecule `CC1CC(NC(C2CC2)C2CC2)=NC1C` (stereo not drawn), the figures for the Ki in assay [1] and in assay [7] were more than 10000 nM and 537 nM, respectively.
Consider `Cc1ccc(F)c(C2=NCCN2)c1`, for which the Ki in assay [1] is more than 10000 nM; in assay [7] (read-out: Ki) it was 5.3 nM.
Taken in the same sequence, the figures for `CC1CCC(Nc2ccc(I)cc2Cl)=N1` (stereo not drawn) were more than 2500 nM and 0.2 nM.
For `Cc1cccc(C)c1/N=C1/CCC(C)N1.Cl` (stereo not drawn), the Activity came to 4% in assay [2] and 5% in [5]. For the same molecule, the result in assay [3] and in assay [4] was inactive.
As to `Cc1ccc(Cl)c(/N=C2\CCC(C)N2)c1.Cl` (stereo not drawn), the Activity in [2] and in assay [5] was 7% in each case. For the same molecule, the outcome in assay [3] and in [4] was inactive.
Turning to `CC1CC/C(=N/c2cc3c(cc2Cl)CCC3)N1.Cl` (stereo not drawn), the Activity in assay [2] is listed as 3%; in assay [5], 9%. For the same molecule, the outcome in [3] and in assay [4] was inactive.
As to `Cc1cccc(/N=C2\CCC(C)N2)c1C.Cl` (stereo not drawn), the values for the Ki in assay [1] and in [7] (read-out: Ki) were more than 10000 nM and 70 nM, respectively. For the same molecule, the Activity is 18% in assay [2], 25% in [3], 20% in [4] and 25% in assay [5].
Take `CC1CN/C(=N\c2cccc3c2CCC3)C1.Cl` (stereo not drawn): the Activity in assay [8] is listed as 22%; in [9], 35%; in assay [3], 30%; in [4], 30%. The results for the Ki in [1] and in assay [7] (read-out: Ki) were more than 10000 nM and 19 nM, respectively.
`NC1=NCC(COc2ccccc2Br)O1` (stereo not drawn): the results for the Ki in assay [1] and in assay [7] (read-out: Ki) were more than 10000 nM and 6.4 nM, respectively.
Regarding `CC1CC/C(=N/c2cccc3c2CCCC3)N1.Cl` (stereo not drawn), the figures for the Ki in assay [1] and in assay [7] (read-out: Ki) were more than 10000 nM and 73 nM, respectively. For the same molecule, the Activity in assay [2] is 26%; in assay [3], 10%; in assay [4], 29%; in [5] it was 37%.
Consider `CC1CC/C(=N\c2cc(N=[N+]=[N-])c(I)cc2Cl)N1` (stereo not drawn), for which the Ki in [1] was more than 2240 nM; in assay [7] (read-out: Ki), 6.03 nM.
For `CC1CC/C(=N/c2cccc3c2CCC3)N1.Cl` (stereo not drawn), the figures for the Ki in assay [1] and in assay [7] (read-out: Ki) were more than 10000 nM and 19 nM, respectively. The Activity in assay [2] was 20%; in assay [3], 29%; in [4], 32%; in [5] it was 37%.
As for `Cc1cc(F)ccc1/N=C1\CCC(C)N1.Cl` (stereo not drawn), the figures for the Activity in assay [2] and in assay [5] were 8% and 6%, respectively. Moreover, the result in assay [3] and in [4] was inactive.
Take `Clc1cccc(Cl)c1N=C1NCCN1` [CLONIDINE]: the Ki in assay [7] (read-out: Ki) was 14.1 nM.
With `C1COC(NC(C2CC2)C2CC2)=N1` [RILMENIDINE], the Ki came out at 180 nM in assay [1] and 83.1 nM in [7] (read-out: Ki). Besides, the Ratio Ki in [6] stood at 2.1.
Turning to `CC1CC/C(=N/c2ccc3c(c2)CCC3)N1.Cl` (stereo not drawn), the Activity in assay [2] is reported as 4%; in assay [5], 8%. In addition, the result in assay [3] and in [4] was inactive.
For the molecule `Cc1ccc(F)c(/N=C2\CCC(C)N2)c1.Cl` (stereo not drawn), the figures for the Activity in assay [2] and in assay [5] were 6% and 9%, respectively. Further, the outcome in [3] and in assay [4] was inactive.
Regarding `Cc1c(Cl)cccc1/N=C1\CC(C)CN1.Cl` (stereo not drawn), in [1], the Ki is more than 10000 nM. Moreover, the Activity in assay [9] is recorded as 30%; in [10], 18%; in [3] it was 33%; in assay [4] it was 30%.
Take `CC1CN=C(Nc2ccc(Cl)c3c2CCC3)C1` (stereo not drawn): the outcome in assay [3] and in assay [4] was inactive. In [7] (read-out: Ki), the Ki was 0.22 nM.
Turning to `CC1CN/C(=N\c2ccc(Cl)c3c2CCC3)C1.Cl` (stereo not drawn), the Ki in assay [1] is more than 10000 nM. In addition, the Activity was 6% in assay [2] and 10% in assay [5].
Taken in the same sequence, the figures for `CC1CC/C(=N/c2ccc(Cl)c3c2CCC3)N1.Cl` (stereo not drawn) were more than 10000 nM, 7% and 6%.
With `CC1CN/C(=N\c2ccc3c(c2)CCC3)C1.Cl` (stereo not drawn), the Activity in assay [2] was 4%; in [5] it was 8%. The outcome in assay [3] and in assay [4] was inactive.
Regarding `COc1nc(C)nc(Cl)c1N=C1NCCN1` [MOXONIDINE], the Ki in [7] (read-out: Ki) came to 77.8 nM.
In the case of `Cc1cccc(/N=C2\CC(C)CN2)c1C.Cl` (stereo not drawn), the Activity is reported as 20% in [8], 26% in assay [9], 31% in [3] and 25% in [4]. In addition, the Ki in assay [1] came to 10000 nM; in assay [7] (read-out: Ki), 42 nM.
Turning to `Cc1ccc(/N=C2/CC(C)CN2)c2c1CCC2.Cl` (stereo not drawn), in assay [1], the Ki is more than 10000 nM. In addition, the Activity in assay [2] was 22%; in assay [3], 15%; in assay [4] it was 32%; in assay [5], 26%.
Regarding `Cc1c(Cl)cccc1/N=C1\CCC(C)N1.Cl` (stereo not drawn), the Ki in [1] was more than 10000 nM; in [7] (read-out: Ki), 27 nM. The Activity in assay [2] is 20%; in assay [3], 30%; in assay [4], 25%; in assay [5] it was 28%.
As to `CC1CCC(Nc2ccc(Cl)c3c2CCC3)=N1` (stereo not drawn), the outcome in assay [3] and in assay [4] was inactive. For the same molecule, the Ki in [7] (read-out: Ki) is 2.8 nM.
